The values below come from US6936726B2, “Flavanol and cysteamine conjugates” (Consejo Superior de Investigaciones Cientificas, priority 2000, dated 2005).

The assay in a line: DPPH (1,1-diphenyl-2-picrylhydracil) antioxidant/antiradical power assay. The following applies: initial DPPH• around 60 μM; absorbance at 517 nm; calculated from the curves of FIG. 3. As for the experimental part: FIG. 3. Antioxidant efficacy of phenolic compounds in the DPPH assay. The absorbance (A) at 517 nm is a measure of the amount of free radical remaining in solution. (1−A/A0)×100 represents the percentage of DPPH that has reacted with the antioxidant. The amount of antioxidant expressed as micromoles per micromole of initial DPPH• to correct the possible day to day variation in the amount of initial DPPH• The initial concentration of DPPH• is calculated from the absorbance (A) and a calibration line. Each point represents the mean of three determinations.
The new molecules are potent antioxidants with an excellent capacity to capture free radicals. The conjugates are more efficient than Trolox (water-soluble analogue of Vitamin E) in the DPPH assay (1,1-diphenyl-2-picrylhydracil) [Brand-Williams, W., Cuvelier, M. E., Berset, C., Lebensm.-Wiss. u.-Technol., 28, 25-30 (1995)]. The conjugates are also more efficient than the corresponding non-derived species.
The new pure products are strong antioxidants/capturers of free radicals. FIG. 3 presents the results of the DPPH test (1,1-diphenyl-2-pycrylhydracil). The values of EC50 (effective concentration 50) are calculated from the curves. EC50 is the amount of antioxidant required to reduce the initial concentration to half (around 60 μM) of DPPH•. This amount is expressed as micromoles antioxidant/micromoles initial DPPH•. The EC50 values for compounds relevant to the present invention are: Trolox (water-soluble analogue of Vitamin E), 0.26; (−)-epicatechine, 0.19, 4ξ-(2-aminoethylthio)epicatechine I, 0.11; 4ξ-(2-aminoethylthio)epicatechinegalate III, 0.11.

As to `NCCSC1c2c(O)cc(O)cc2O[C@H](c2ccc(O)c(O)c2)[C@H]1O` (stereo partly shown) [I, 4ξ-(2-aminoethylthio)epicatechine], the “EC50 (amount of antioxidant required to reduce the initial concentration of DPPH• to half)” value is listed as 0.11 micromoles antioxidant/micromoles initial DPPH•.
In the case of `NCCSC1c2c(O)cc(O)cc2O[C@H](c2ccc(O)c(O)c2)[C@H]1OC(=O)c1cc(O)c(O)c(O)c1` (stereo partly shown) [III, 4ξ-(2-aminoethylthio)epicatechinegalate], the “EC50 (amount of antioxidant required to reduce the initial concentration of DPPH• to half)” value is reported as 0.11 micromoles antioxidant/micromoles initial DPPH•.
As to `Cc1c(C)c2c(c(C)c1O)CCC(C)(C(=O)O)O2` (stereo not shown) [Trolox], the “EC50 (amount of antioxidant required to reduce the initial concentration of DPPH• to half)” value is 0.26 micromoles antioxidant/micromoles initial DPPH•.
Turning to (−)-epicatechine, the “EC50 (amount of antioxidant required to reduce the initial concentration of DPPH• to half)” value is 0.19 micromoles antioxidant/micromoles initial DPPH•.
